These results are taken from patent publication US8889878B2, “Haloalky-substituted amides as insecticides and acaricides” (Bayer CropScience AG, priority 2009, dated 2014).

The data set can be described thus: logP by HPLC on reverse-phase column (EEC Directive 79/831 Annex V.A8). It counts as physicochemical. To be noted: for chromatographic logP: reverse-phase C18 HPLC column. The method, then:
The logP values reported in the above Tables and Preparation Examples were determined according to EEC Directive 79/831 Annex V.A8 by HPLC (High Performance Liquid Chromatography) on a reverse-phase column (C18). Temperature 43° C.

The mark [1] stands for this setting: HPLC, C18 reverse phase, 43° C., acidic range pH 2.7, calibration with alkan-2-ones.
The mark [2] stands for this setting: pH 2.7, HPLC, C18 reverse phase, 43° C., acidic range pH 2.7, calibration with alkan-2-ones.
Where [3] appears, read: HPLC-MS, HPLC on reverse-phase column.

For orientation: logP means the decadic logarithm of the partition coefficient of the neutral form, usually between octanol and water. Lower therefore signals a more hydrophilic compound. With `O=C(/C=C/c1ccc(C(=O)NCc2nccs2)c(Br)c1)NC(c1cccc(C(F)(F)F)c1)C(F)(F)F` (stereo not drawn) [Ia-177], the logP result (HPLC-MS) is “HPLC-MS: logP = 3.14; mass”.
On the same count and under the same terms, for `Cc1cc(/C=C/C(=O)NC(c2cc(Cl)cc(Cl)c2)C(F)(F)F)ccc1C(=O)NC1CC1` (stereo not drawn) [Ia-12] the value was “HPLC-MS: logP = 3.33; mass”; for `O=C(/C=C/c1ccc(C(=O)NC2CC2)c(C(F)(F)F)c1)NC(c1c(F)cccc1F)C(F)(F)F` (stereo not drawn) [Ia-38], “HPLC-MS: logP = 2.89; mass”.
In general, chromatographic logP refers to a lipophilicity value derived from retention on a column. The low end stands for lower lipophilicity, the high end for higher lipophilicity. `CC(C)(C)OC(=O)NCc1ccc(/C=C/C(=O)NC(c2cccc(C(F)(F)F)c2)C(F)(F)F)cc1C(F)(F)F` (stereo not drawn) [tert-Butyl {4-[1E)-3-oxo-3-({2,2,2-trifluoro-1-[3-(trifluoromethyl)phenyl]ethyl}amino)prop-1-en-1-yl]-2-(trifluoromethyl)benzyl}carbamate] came in with a chromatographic logP under setting [1] of 4.4.
`NCc1ccc2oc(C(=O)NC(c3cccc(C(F)(F)F)c3)C(F)(F)F)cc2c1` (stereo not drawn) [5-(Aminomethyl)-N-{2,2,2-trifluoro-1-[3-(trifluoromethyl)phenyl]ethyl}-1-benzofuran-2-carboxamide] came in with a chromatographic logP under setting [2] of 2.02.
For the compound `CC(=O)NCc1ccc(/C=C/C(=O)NC(c2cccc(C(F)(F)F)c2)C(F)(F)F)cc1C` (stereo not drawn) [Ia-249], the logP entry (HPLC-MS) is listed as “HPLC-MS: logP = 2.9; mass”.
With `O=C(/C=C/c1ccc(C(=O)NCC(=O)NCC(F)(F)F)c(C(F)(F)F)c1)NC(c1cccc(C(F)(F)F)c1)C(F)(F)F` (stereo not drawn) [Ia-262], the logP entry under setting [3] is “HPLC-MS: logP = 3.11; mass”.
Still for that read-out and setting: for `O=C(/C=C/c1ccc(CNC(=O)c2ccsc2)c(C(F)(F)F)c1)NC(c1cccc(C(F)(F)F)c1)C(F)(F)F` (stereo not drawn) [Ia-268] the value was “HPLC-MS: logP = 3.92; mass”; for `O=C(/C=C/c1ccc(CNc2ccccn2)c(C(F)(F)F)c1)NC(c1cccc(C(F)(F)F)c1)C(F)(F)F` (stereo not drawn) [Ia-263], “HPLC-MS: logP = 2.2; mass”.
`O=C(NCc1ccccn1)c1ccc(Br)cc1C(F)(F)F` [4-Bromo-N-(pyridin-2-ylmethyl)-2-(trifluoromethyl)benzamide] yielded a chromatographic logP under setting [2] of 1.56.
As to `O=C(/C=C/c1ccc(C(=O)Nc2ccc(Cl)nn2)c(Cl)c1)NC(c1cccc(C(F)(F)F)c1)C(F)(F)F` (stereo not drawn) [Ia-228], for the setting “HPLC-MS”, the logP result is “HPLC-MS: logP = 3.7; mass”.
Turning to `NC(c1cc(Cl)c(Cl)c(Cl)c1)C(F)(F)F` (stereo not drawn) [2,2,2-Trifluoro-1-(3,4,5-trichlorophenyl)ethanamine], the chromatographic logP under setting [2] is 3.17.
Consider `N#Cc1cc(/C=C/C(=O)NC(c2cccc(F)c2)C(F)(F)F)ccc1-n1cncn1` (stereo not drawn) [Ia-13], for which, where the note is “HPLC-MS”, the logP result is “HPLC-MS: logP = 2.61; mass”.
On the same count and under the same terms, for `O=C(/C=C/c1ccc(C(=O)NC2CC2)c(Cl)c1)NC(c1cccc(C(F)(F)F)c1)C(F)(F)F` (stereo not drawn) [Ia-118] the value was “HPLC-MS: logP = 3.24; mass”.
Take `O=C(Nc1ccccn1)c1ccc(Br)cc1C(F)(F)F` [4-Bromo-N-(pyridin-2-yl)-2-(trifluoromethyl)benzamide]: the chromatographic logP under setting [2] turned out to be 2.57.
Turning to `CCOC1(NC(=O)c2ccc(/C=C/C(=O)NC(c3cccc(C(F)(F)F)c3)C(F)(F)F)cc2C)CC1` (stereo not drawn) [Ia-85], for the setting “HPLC-MS”, the logP result is recorded as “HPLC-MS: logP = 3.27 mass”.
The same measure, in the same setting: for `O=C(/C=C/c1ccc(C(=O)NCc2ccccn2)c(C(F)(F)F)c1)NC(c1c(F)cccc1F)C(F)(F)F` (stereo not drawn) [Ia-35] the value was “HPLC-MS: logP = 2.46; mass”.
On to `O=C(NC1CC1)c1cc2cc(C(=O)NC(c3cccc(C(F)(F)F)c3)C(F)(F)F)n(Cc3ccccc3)c2cc1Cl` (racemic) [Ic-28], for which the logP result under setting [1] is reported as “HPLC-MS: logP = 4.25; mass”.
On the same count and under the same terms, for `Cn1c(C(=O)NC(c2cccc(C(F)(F)F)c2)C(F)(F)F)cc2cc(Cl)c(C(=O)NC3CC3)cc21` (stereo not drawn) [Ic-48] the value was “HPLC-MS: logP = 3.33; mass”.
`O=C(O)/C=C/c1ccc(C(=O)NCc2ccccc2)c(C(F)(F)F)c1` [(2E)-3-[4-(Phenylmethyl)carbamoyl)-3-trifluoromethylphenyl]acrylic acid] yielded a logP (pH 2.7) of 2.12.
Consider `CS(=O)(=O)c1cccc(C(NC(=O)/C=C/c2ccc(C(=O)NC3CC3)c(C(F)(F)F)c2)C(F)(F)F)c1` (stereo not drawn) [Ia-243], for which the logP entry (HPLC-MS) is reported as “HPLC MS: logP = 2.31; mass”.
